Experiments:
[1] = molecular target: T1, Recombinant AMPK α1/β1/γ1 complex (Homo sapiens (Human), UniProt Q13131+Q9Y478); test: In vitro pAMPK1 kinase activation assay (ADP-Glo, SAMS peptide); format: biochemical; details: at 10 μM
[2] = system: Mouse In Vivo Acute Dextran Sulfate Sodium (DSS) Colitis Model; test: Intestinal barrier function in acute DSS colitis model (FITC-dextran); parameters: species or system C57Bl/6 mice
Description: Vehicle or a dose of Compound A1 or Compound 1 was administered once daily by oral gavage to C57Bl/6 mice. After 3 days of pre-dosing, dextran sulfate sodium (DSS) was simultaneously administered at 2.5-3% in drinking water, and appropriate water-only controls were included.
After 6 days of DSS administration, animals treated with Compound A1 were switched back to their regular water source and a 24-hour wash-out of both DSS and compound was provided. The animals were fasted on the morning of take-down and administered a single oral bolus dose of FITC-dextran. The animals were sacrificed by cardiac puncture 4 hours after administration and plasma was collected. The concentration of FITC-dextran present in plasma was determined by measuring fluorescence intensity on a standard plate reader, and fitting values back to a standard curve.
After 7 days of DSS administration, animals treated with Compound 1 were switched back to their regular water source and the animals were administered a single oral bolus dose of FITC-dextran (FD) four hours prior to necropsy. The animals were sacrificed by cardiac puncture and serum was collected. The concentration of FITC-dextran present in serum was determined by measuring fluorescence intensity on a standard plate reader, and fitting values back to a standard curve.

[3] = Pharmacokinetics (oral bioavailability, IV parameters); details: mouse, in vivo, C57BL/6 mice; for bioavailability: IV 1 mg/kg, PO 30 mg/kg; for half-life / Vd: IV administration 1 mg/kg; for Vd: read-out: volume of distribution
Description: Compounds were tested for pharmacokinetics in C57BL/6 mice. Compounds 2, 4, and A1 were dosed IV at 1 mg/kg as a formulation of 0.5 mg/mL in 5% DMSO+30% PEG400+65% water and PO at 30 mg/kg as a formulation of 6 mg/mL in 0.25% MC+5% Tween 80+0.02% SDS. Compound 1 was dosed IV at 1 mg/kg as a formulation of 0.50 mg/mL in 5% DMSO+30% PEG400+65% water and PO at 30 mg/kg as a formulation of 6 mg/mL in 0.5% MC+0.5% Tween 80.

MDCK cells = test: Effects on tight junction (TJ) architecture, ZO-1 staining; format: cell-based; details: 10 μM, low calcium medium (LCM)
Description: MDCK cells were grown to confluence on Transwell inserts in standard growth media. The inserts were then washed and incubated in low calcium medium (LCM) with vehicle or compound (10 μM) and fixed with paraformaldehyde. Fixed cells were stained for tight junction (TJ) component proteins using commercially available antibodies and visualized on a confocal microscope (Model DM6, Leica Microsystems). As shown by zona occludens-1 (ZO-1) staining, confluent epithelial cell monolayers in standard growth media display well-organized TJs that allow the cells to form a tight seal with their neighbors, while LCM induces autonomous internalization of TJ proteins into the cytoplasm and therefore compromises the barrier function of the epithelial monolayer.

[4] = molecular target: T1, Recombinant AMPK α1/β1/γ1 complex; test: In vitro pAMPK1 kinase activation assay (ADP-Glo, SAMS peptide); format: biochemical; details: for EC50: AMPK α1/β1/γ1 pre-activated with CAMKK2, 12-point curve; for activation at 10 µM: relative to reference compound MK-8722
Description: Compound effect on AMPK enzyme activation was determined in a cell-free format with a 12-point concentration curve. The ADP-Glo detection system was used to determine phosphorylation of a SAMS peptide substrate. Recombinant AMPK α1/β1/γ1 complex was pre-activated by phosphorylation with CAMKK2 followed by incubated with compound for 15 minutes prior to the SAMS phosphorylation reaction. Activity curves and EC50 values were fitted by interpolation to an ATP:ADP standard curve as indicated by the ADP-Glo manufacturer using Prism software. Activity at 10 μM is reported relative to a reference compound, MK-8722 (Science 2017, 357(6350):507-511).

[5] = system: Mouse In Vivo Chemotherapy-Induced Intestinal Injury Model; test: Diarrhea in chemotherapy (5FU)-induced intestinal injury model; parameters: species or system BALB/c mice
Description: Compounds were formulated in vehicle (0.25% methyl cellulose, 5% Tween 80, 0.02% sodium dodecyl sulfate (SDS) in Hanks' Buffered Salt Solution with Ca2+ and Mg2+). On day 1, either saline or a 400 mg/kg dose of 5-fluorouracil (5FU) in saline was administered by intraperitoneal injection to BALB/c mice. Starting on day 2, vehicle or compound was administered once or twice a day by oral gavage. In some instances, compound was also administered once or twice a day by oral gavage from day −3 to day −1 (pre-5FU). From days 5 to 6 post-5FU, the animals were scored for diarrhea severity once a day. The diarrhea was scored 0-3 as follows: 0—normal consistency (black and solid), 1—soft (black and a bit lighter/yellow), 2—loosely shaped stool (yellowish and somewhat watery), 3—extreme diarrhea (very watery). Day 5 and day 6 diarrhea scores following administration of certain compounds were lower than vehicle control mice. […] In addition, Compound 1 was efficacious at doses as low as 3 mg/kg BID (6 mg/kg total daily dose).

[6] = system: Madin-Darby Canine Kidney (MDCK) cells; test: In vitro MDCK epithelial permeability assay (FITC-dextran, calcium switch); format: cell-based; details: low calcium medium, MDCK monolayers
Description: In order to quantitatively measure the effects of transporter substrate AMPK activators on epithelial permeability in vitro, standard calcium switch protocols from the literature were adapted for use with Madin-Darby Canine Kidney (MDCK) cells grown on Corning Transwell inserts for use with fluorescein isothiocyanate-dextran, average molecular weight 4 kDa (FITC-dextran). FITC-dextran is a large, metabolically inert sugar molecule that is not readily transferrable across healthy epithelial barriers in vitro or in vivo. This compound has been tagged with a fluorophore to easily track its movement.
Briefly, MDCK cells were seeded onto Transwell inserts and grown according to manufacturer instructions until confluent. On the day of the experiment, a baseline reading was taken in standard growth media in which FITC-dextran was spiked into the apical chamber and the percent permeation of FITC-dextran from the apical to the basolateral chamber was measured. The inserts were then washed in low calcium medium (LCM) containing either vehicle or compound to remove residual FITC-dextran and calcium, and FITC-dextran was once again spiked into the apical chamber and the percent permeation in LCM was measured. Values were determined by reading fluorescence intensity on a standard plate reader and calculated by fitting back to 12-point standard curve in either growth media or LCM+vehicle, respectively. The fold induction of FITC-dextran permeation to the basolateral chamber when each well was transferred from baseline growth media to LCM was then calculated.

T1 sequence (Q13131 whole entry): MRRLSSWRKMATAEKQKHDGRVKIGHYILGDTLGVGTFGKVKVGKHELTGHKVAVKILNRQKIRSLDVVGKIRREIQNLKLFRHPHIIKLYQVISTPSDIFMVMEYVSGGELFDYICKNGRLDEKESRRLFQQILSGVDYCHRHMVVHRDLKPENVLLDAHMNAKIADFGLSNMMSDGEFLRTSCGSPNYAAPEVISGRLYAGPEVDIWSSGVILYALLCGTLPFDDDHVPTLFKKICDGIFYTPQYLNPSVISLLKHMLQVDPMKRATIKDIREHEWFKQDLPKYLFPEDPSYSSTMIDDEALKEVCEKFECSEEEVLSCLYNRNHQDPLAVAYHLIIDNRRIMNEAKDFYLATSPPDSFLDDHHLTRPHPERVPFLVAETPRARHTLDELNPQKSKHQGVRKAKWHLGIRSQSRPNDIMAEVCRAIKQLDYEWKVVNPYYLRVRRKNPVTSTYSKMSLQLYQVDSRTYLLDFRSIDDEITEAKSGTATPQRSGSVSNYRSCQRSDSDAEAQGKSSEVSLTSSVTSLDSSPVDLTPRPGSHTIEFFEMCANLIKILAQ
T1 sequence (Q9Y478 whole entry): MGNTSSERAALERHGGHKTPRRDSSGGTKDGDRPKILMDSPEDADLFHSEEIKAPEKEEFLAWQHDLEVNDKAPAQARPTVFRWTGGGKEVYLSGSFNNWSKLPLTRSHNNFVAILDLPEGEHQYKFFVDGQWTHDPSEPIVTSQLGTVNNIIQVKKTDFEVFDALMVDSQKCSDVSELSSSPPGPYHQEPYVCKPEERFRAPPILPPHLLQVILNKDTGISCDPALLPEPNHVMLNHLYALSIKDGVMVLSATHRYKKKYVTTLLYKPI
T1 sequence (P54619 whole entry partner): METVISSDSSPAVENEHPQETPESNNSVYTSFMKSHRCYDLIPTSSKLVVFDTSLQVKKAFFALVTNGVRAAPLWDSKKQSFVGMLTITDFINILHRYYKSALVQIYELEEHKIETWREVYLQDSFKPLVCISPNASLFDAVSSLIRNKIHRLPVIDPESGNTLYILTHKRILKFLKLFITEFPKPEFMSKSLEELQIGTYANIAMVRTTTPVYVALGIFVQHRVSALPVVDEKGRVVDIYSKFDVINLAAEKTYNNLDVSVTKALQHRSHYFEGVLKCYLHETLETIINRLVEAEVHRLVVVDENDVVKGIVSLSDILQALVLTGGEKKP

## O=C(O)CSc1nc2cc(-c3ccc(-c4ccccc4O)cc3)c(Cl)cc2[nH]1 [Compound A1]
[1]
  activation compared with AMP: activation greater than that displayed by AMP
[2]; 30 mg/kg PO once daily, plasma, 6 days DSS then 24-hour wash-out
  Change in Fluorescence Intensity vs. Vehicle: −60%
[3]
  bioavailability: < 1%
  half-life: 4.8 h
  Vd: 2.4 L/kg
MDCK cells
  TJ architecture by zona occludens-1 (ZO-1) staining: prevented the loss of TJ architecture
[4]
  EC50: 200 nM
  activation at 10 µM: 48%
[5]; 30 mg/kg QD, Day 5
  Diarrhea Score % Change vs. Vehicle: +38%
[5]; 30 mg/kg QD, Day 5, score 0-3
  Diarrhea Score: 1.38
[5]; 30 mg/kg QD, Day 6
  Diarrhea Score % Change vs. Vehicle: −29%
[5]; 30 mg/kg QD, Day 6, score 0-3
  Diarrhea Score: 1.25
[6]; 0.1 μM
  reduction of FITC-dextran permeation relative to vehicle: 40%
[6]; 1 μM
  reduction of FITC-dextran permeation relative to vehicle: 61%

## O=C(O)CSc1nc2nc(-c3ccc(-c4ccccc4O)cc3)c(Cl)cc2[nH]1 [Compound 1, 2-((6-chloro-5-(2′-hydroxy-[1,1′-biphenyl]-4-yl)-1H-imidazo[4,5-b]pyridin-2-yl)thio)acetic Acid]
[1]
  activation compared with AMP: activation greater than that displayed by AMP
[2]; 3 mg/kg PO once daily, serum, 7 days DSS
  Change in Fluorescence Intensity vs. Vehicle: −35%
[2]; 10 mg/kg PO once daily, serum, 7 days DSS
  Change in Fluorescence Intensity vs. Vehicle: −69%
[2]; 30 mg/kg PO once daily, serum, 7 days DSS
  Change in Fluorescence Intensity vs. Vehicle: −80%
[2]; 100 mg/kg PO once daily, serum, 7 days DSS
  Change in Fluorescence Intensity vs. Vehicle: −96%
[3]
  bioavailability: < 1%
  half-life: 1.9 h
  Vd: 0.7 L/kg
MDCK cells
  TJ architecture by zona occludens-1 (ZO-1) staining: prevented the loss of TJ architecture
[4]
  potency relative to Compound A1: > 100 fold
  EC50: 1.4 nM
  activation at 10 µM: 35%
[5]; 3 mg/kg BID, Day 5
  Diarrhea Score % Change vs. Vehicle: −17%
[5]; 3 mg/kg BID, Day 5, score 0-3
  Diarrhea Score: 0.50
[5]; 3 mg/kg BID, Day 6
  Diarrhea Score % Change vs. Vehicle: −56%
[5]; 3 mg/kg BID, Day 6, score 0-3
  Diarrhea Score: 0.75
[5]; 10 mg/kg BID, Day 5
  Diarrhea Score % Change vs. Vehicle: −28%
[5]; 10 mg/kg BID, Day 5, score 0-3
  Diarrhea Score: 0.43
[5]; 10 mg/kg BID, Day 6
  Diarrhea Score % Change vs. Vehicle: −71%
[5]; 10 mg/kg BID, Day 6, score 0-3
  Diarrhea Score: 0.50
[5]; 30 mg/kg BID, Day 5
  Diarrhea Score % Change vs. Vehicle: −100%
[5]; 30 mg/kg BID, Day 5, score 0-3
  Diarrhea Score: 0
[5]; 30 mg/kg BID, Day 6
  Diarrhea Score % Change vs. Vehicle: −66%
[5]; 30 mg/kg BID, Day 6, score 0-3
  Diarrhea Score: 0.57
[5]; 30 mg/kg QD, Day 5
  Diarrhea Score % Change vs. Vehicle: −30%
[5]; 30 mg/kg QD, Day 5, score 0-3
  Diarrhea Score: 0.63
[5]; 30 mg/kg QD, Day 6
  Diarrhea Score % Change vs. Vehicle: −58%
[5]; 30 mg/kg QD, Day 6, score 0-3
  Diarrhea Score: 0.75
[5]; 100 mg/kg BID, Day 5
  Diarrhea Score % Change vs. Vehicle: −63%
[5]; 100 mg/kg BID, Day 5, score 0-3
  Diarrhea Score: 0.38
[5]; 100 mg/kg BID, Day 6
  Diarrhea Score % Change vs. Vehicle: −79%
[5]; 100 mg/kg BID, Day 6, score 0-3
  Diarrhea Score: 0.38
[6]; 0.1 μM
  reduction of FITC-dextran permeation relative to vehicle: 48%
[6]; 1 μM
  reduction of FITC-dextran permeation relative to vehicle: 62%

Reference: US11279702B2, “AMPK activators” (Kallyope, Inc., priority 2020, dated 2022)
